Data from patent US20230167467A1, “METHODS AND COMPOSITIONS FOR THE PRODUCTION OF ISOBUTENE” (University of Alaska Anchorage, priority 2020, published 2023).

Columns and labels:
[1] = system: Engineered strains of E. coli; type: cell-based
[2] = purified MVD on 3-HIV; cited from earlier work
[3] = after solvent exposure, vs positive control

CC(C)CO [isobutanol]
expression of RNAse adapter protein rapZ [1]: downregulation | expression of accBC (fatty acid biosynthesis) [1]: downregulated | expression of adiA [1]: downregulated | expression of bssRS (decreasing biofilm material) [1]: upregulated | expression of chaperone genes groLS and dnaJK [1]: increased expression | expression of gadABCE (acid resistance via GABA production) [1]: downregulated | expression of gatY and marCRAB loci [1]: upregulation | expression of glpABC (glycerol to glycerone phosphate) [1]: increased in expression | expression of heat shock proteins and chaperones hslJORUV [1]: upregulation | expression of ibpAB and clpAB (protein protection and repair) [1]: increased | expression of marA [1]: upregulated | change in expression of gene adiA [1, 3]: −2.97 ± 0.87 | change in expression of gene adiC [1, 3]: −2.56 ± 1.03 | change in expression of gene adiY [1, 3]: −0.17 ± 0.65 | change in expression of gene bhsA [1, 3]: 4.78 ± 0.60 | change in expression of gene bssR [1, 3]: −1.75 ± 1.29 | change in expression of gene bssS [1, 3]: 4.08 ± 0.84 | change in expression of gene clpA [1, 3]: 2.07 ± 0.63 | change in expression of gene clpB [1, 3]: 4.51 ± 0.69 | change in expression of gene clpP [1, 3]: 0.38 ± 0.59 | change in expression of gene coaA [1, 3]: −3.09 ± 0.90 | change in expression of gene coaD [1, 3]: −1.68 ± 0.97 | change in expression of gene cspA [1, 3]: −4.88 ± 0.58 | change in expression of gene cspB [1, 3]: −5.73 ± 1.38 | change in expression of gene cspC [1, 3]: −3.36 ± 0.94 | change in expression of gene cspD [1, 3]: 1.73 ± 0.58 | change in expression of gene cspE [1, 3]: −1.94 ± 0.64 | change in expression of gene cspF [1, 3]: −3.40 ± 1.07 | change in expression of gene dhaK [1, 3]: 1.05 ± 0.59 | change in expression of gene dhaL [1, 3]: −0.04 ± 0.64 | change in expression of gene dnaJ [1, 3]: 3.71 ± 0.69 | change in expression of gene dnaK [1, 3]: 4.53 ± 0.66 | change in expression of gene fabA [1, 3]: −2.84 ± 0.81 | change in expression of gene fabB [1, 3]: −0.39 ± 0.68 | change in expression of gene fabD [1, 3]: −2.33 ± 0.53 | change in expression of gene flgA [1, 3]: −3.05 ± 1.60 | change in expression of gene flgB [1, 3]: −8.74 ± 1.90 | change in expression of gene flgC [1, 3]: −8.87 ± 2.24 | change in expression of gene flgD [1, 3]: −6.75 ± 2.03 | change in expression of gene flgE [1, 3]: −4.68 ± 1.21 | change in expression of gene flgF [1, 3]: −5.18 ± 1.70 | change in expression of gene flgG [1, 3]: −6.73 ± 1.69 | change in expression of gene flgH [1, 3]: −4.17 ± 1.80 | change in expression of gene gabD [1, 3]: −2.21 ± 1.41 | change in expression of gene gabP [1, 3]: −1.47 ± 1.32 | change in expression of gene gabT [1, 3]: −1.57 ± 1.34 | change in expression of gene gadA [1, 3]: −0.71 ± 0.69 | change in expression of gene gadB [1, 3]: 0.96 ± 0.79 | change in expression of gene gadC [1, 3]: 1.56 ± 0.80 | change in expression of gene gadE [1, 3]: −0.46 ± 0.60 | change in expression of gene gadW [1, 3]: −4.10 ± 0.99 | change in expression of gene gadX [1, 3]: −2.01 ± 0.57 | change in expression of gene gadY [1, 3]: −3.37 ± 0.80 | change in expression of gene glpA [1, 3]: 5.44 ± 0.87 | change in expression of gene glpB [1, 3]: 2.96 ± 0.64 | change in expression of gene glpC [1, 3]: 2.92 ± 0.81 | change in expression of gene groL [1, 3]: 4.05 ± 0.57 | change in expression of gene groS [1, 3]: 4.43 ± 0.50 | change in expression of gene hchA [1, 3]: 3.17 ± 0.60 | change in expression of gene hslJ [1, 3]: 1.12 ± 0.66 | change in expression of gene hslO [1, 3]: 1.72 ± 0.65 | change in expression of gene hslR [1, 3]: 2.12 ± 0.65 | change in expression of gene hslU [1, 3]: 1.52 ± 0.56 | change in expression of gene hslV [1, 3]: 0.88 ± 0.62 | change in expression of gene ibpA [1, 3]: 5.74 ± 1.21 | change in expression of gene ibpB [1, 3]: 6.79 ± 1.50 | change in expression of gene lipA [1, 3]: 0.31 ± 0.60 | change in expression of gene lipB [1, 3]: −2.33 ± 0.69 | change in expression of gene narG [1, 3]: 2.47 ± 0.65 | change in expression of gene narH [1, 3]: 1.99 ± 0.62 | change in expression of gene narI [1, 3]: 0.99 ± 0.94 | change in expression of gene narJ [1, 3]: 1.39 ± 0.69 | change in expression of gene narK [1, 3]: −0.93 ± 0.90 | change in expression of gene potA [1, 3]: −5.42 ± 0.87 | change in expression of gene potB [1, 3]: −2.50 ± 1.32 | change in expression of gene potC [1, 3]: −2.97 ± 1.28 | change in expression of gene pspA [1, 3]: 5.48 ± 0.55 | change in expression of gene pspB [1, 3]: 3.26 ± 0.68 | change in expression of gene rpoA [1, 3]: −0.58 ± 0.44 | change in expression of gene rpoB [1, 3]: −0.72 ± 0.40 | change in expression of gene rpoC [1, 3]: −1.03 ± 0.39 | change in expression of gene rpoD [1, 3]: 1.30 ± 0.70 | change in expression of gene rpoE [1, 3]: −1.10 ± 0.62 | change in expression of gene rpoH [1, 3]: 1.72 ± 0.52 | change in expression of gene rpoN [1, 3]: −1.50 ± 0.49 | change in expression of gene rpoS [1, 3]: 1.73 ± 0.47 | change in expression of gene rpoZ [1, 3]: −0.91 ± 0.54 | change in expression of gene spy [1, 3]: 8.88 ± 0.87 | change in expression of gene tatA [1, 3]: −2.04 ± 0.52 | change in expression of gene tatB [1, 3]: −2.87 ± 0.60 | change in expression of gene tatC [1, 3]: −4.38 ± 1.21 | change in expression of gene tatD [1, 3]: −4.11 ± 1.20 | change in expression of gene tatE [1, 3]: 0.70 ± 0.64 | number of genes with significant changes in expression ([1]; vs control, Bon Ferroni corrected p-value<0.05): 831 genes

B1: MVD: mevalonate diphosphate decarboxylase of Saccharomyces cerevisiae, enzyme and gene/transcript (optimized gene SEQ ID NO:2) (protein)
chain: MTVYTASVTAPVNIATLKYWGKRDTKLNLPTNSSISVTLSQDDLRTLTSAATAPEFERDTLWLNGEPHSIDNERTQNCLRDLRQLRKEMESKDASLPTLSQWKLHIVSENNFPTAAGLASSAAGFAALVSAIAKLYQLPQSTSEISRIARKGSGSACRSLFGGYVAWEMGKAEDGHDSMAVQIADSSDWPQMKACVLVVSDIKKDVSSTQGMQLTVATSELFKERIEHVVPKRFEVMRKAIVEKDFATFAKETMMDSNSFHATCLDSFPPIFYMNDTSKRIISWCHTINQFYGETIVAYTFDAGPNAVLYYLAENESKLFAFIYKLFGSVPGWDKKFTTEQLEAFNHQFESSNFTARELDLELQKDVARVILTQVGSGPQETNESLIDAKTGLPKE
modifications: optimized gene; MVD optimized gene sequence
Isobutene production [2]: 6.44±0.95 pmol*min-1 *mg protein-1
